Values of other authors as cited in publication PMC3426641 (Biochemistry, 2012).

Target: T1, Eis_Mtb (Mycobacterium tuberculosis, UniProt P9WFK7)
Settings: TLC and NMR spectroscopy; cited from earlier work

T1 sequence (P9WFK7 whole entry): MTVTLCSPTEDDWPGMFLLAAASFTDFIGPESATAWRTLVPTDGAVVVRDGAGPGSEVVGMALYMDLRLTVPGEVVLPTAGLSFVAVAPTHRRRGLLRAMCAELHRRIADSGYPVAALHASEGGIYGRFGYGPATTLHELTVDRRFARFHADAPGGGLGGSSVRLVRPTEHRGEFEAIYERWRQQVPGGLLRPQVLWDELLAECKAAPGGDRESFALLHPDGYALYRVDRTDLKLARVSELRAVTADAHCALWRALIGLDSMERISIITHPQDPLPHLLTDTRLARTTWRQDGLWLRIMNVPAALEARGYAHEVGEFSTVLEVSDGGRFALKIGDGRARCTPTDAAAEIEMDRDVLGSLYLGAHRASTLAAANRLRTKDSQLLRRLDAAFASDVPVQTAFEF

Row | Compound | positions acetylated (regio-specificity)
1 | NC[C@H]1O[C@H](O[C@H]2[C@H](O)[C@@H](O)[C@H](N)C[C@@H]2N)[C@H](N)[C@@H](O)[C@@H]1O [NEA, neamine] | first at the 2′-, then at the 6′-, and finally at the 1-position

Target: T1, Eis_Mtb
Settings: cited from earlier work

Row | Compound | level of acetylation by Eis from M. tuberculosis
2 | kanamycin A | di-acetylated

Same assay, conditions: number of acetylations per AG; previously reported; cited from earlier work

Row | Compound | level of acetylation by Eis from M. tuberculosis
3 | CCN[C@@H]1C[C@H](N)[C@@H](O[C@H]2OC(CN)=CC[C@H]2N)[C@H](O)[C@H]1O[C@H]1OC[C@](C)(O)[C@H](NC)[C@H]1O [NET, netilmicin] | di-acetylated
4 | NC[C@H]1O[C@H](O[C@H]2[C@H](O)[C@@H](O[C@H]3O[C@H](CO)[C@@H](O)[C@H](N)[C@H]3O)[C@H](N)C[C@@H]2N)[C@H](N)C[C@@H]1O [TOB, tobramycin] | tetra-acetylated
5 | CN[C@@H]1[C@H](O)[C@H](NC)[C@H]2O[C@@]3(O)C(=O)C[C@@H](C)O[C@H]3O[C@@H]2[C@H]1O [SPT, spectinomycin] | not modified
6 | [H]/N=C(/N)N[C@H]1[C@H](O)[C@@H](O)[C@H](O[C@@H]2O[C@@H](C)[C@](O)(C=O)[C@H]2O[C@@H]2O[C@@H](CO)[C@H](O)[C@@H](O)[C@@H]2NC)[C@@H](N/C(N)=N\[H])[C@@H]1O [STR, streptomycin] | not modified
7 | CN[C@@H]1[C@@H](O[C@H]2O[C@H](CO)[C@@H](N)[C@H](O)[C@H]2O)OC2C[C@@H](N)[C@@H](O[C@H]3[C@H](O)[C@@H](O)[C@H](N)C[C@@H]3N)OC2[C@@H]1O (some centres unmarked) [APR, apramycin] | could not chemically modify
8 | CN[C@@H]1C[C@H](N)[C@@H](O)[C@H](O[C@H]2O[C@H](CO)[C@H](O)[C@@H]3O[C@@]4(O[C@@H]23)O[C@H]([C@H](N)CO)[C@H](O)[C@H](O)[C@H]4O)[C@H]1O [HYG, hygromycin] | di-acetylated
9 | NC[C@H]1O[C@H](O[C@H]2[C@H](O[C@@H]3O[C@H](CO)[C@@H](O)[C@H]3O)[C@@H](O)[C@H](N)C[C@@H]2N)[C@H](N)[C@@H](O)[C@@H]1O [RIB, ribostamycin] | tri-acetylated
10 | NCC[C@H](O)C(=O)N[C@@H]1C[C@H](N)[C@@H](O[C@H]2O[C@H](CN)[C@@H](O)[C@H](O)[C@H]2O)[C@H](O)[C@H]1O[C@H]1O[C@H](CO)[C@@H](O)[C@H](N)[C@H]1O [AMK, amikacin] | tri-acetylated
11 | NC[C@@H]1O[C@H](O[C@H]2[C@@H](O)[C@H](O[C@@H]3[C@@H](O)[C@H](N)C[C@H](N)[C@H]3O[C@H]3O[C@H](CN)[C@@H](O)[C@H](O)[C@H]3N)O[C@@H]2CO)[C@H](N)[C@@H](O)[C@@H]1O [NEO, neomycin B] | tri-acetylated
12 | NC[C@H]1O[C@H](O[C@H]2[C@H](O)[C@@H](O)[C@H](N)C[C@@H]2N)[C@H](N)[C@@H](O)[C@@H]1O [NEA, neamine] | tri-acetylated
13 | CN[C@@H]1[C@@H](O)[C@@H](O[C@@H]2[C@@H](O)[C@H](O[C@H]3OC(CN)=CC[C@H]3N)[C@@H](N)C[C@H]2N)OC[C@]1(C)O [SIS, sisomicin] | tri-acetylated
14 | NC[C@@H]1O[C@H](O[C@H]2[C@@H](O)[C@H](O[C@@H]3[C@@H](O)[C@H](N)C[C@H](N)[C@H]3O[C@H]3O[C@H](CO)[C@@H](O)[C@H](O)[C@H]3N)O[C@@H]2CO)[C@H](N)[C@@H](O)[C@@H]1O [PAR, paromomycin] | di-acetylated
